Data reported in patent US12673954B2 (BRISTOL-MYERS SQUIBB COMPANY, priority 2021, dated 2026).
Like-named read-outs stand apart in the source and are kept apart here.

Columns and labels:
[1] = system: IRF pathway, THP1-Dual™ cells; test: STING reporter assay in THP1-Dual cells, IRF pathway (Lucia luciferase, QUANTI-Luc); format: cell-based, human; conditions: read-out: IRF (EC50 μM)
Summary of the method: (§1)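 THP-1-derived dual-reporter cells treated with serially diluted compounds (final top concentration 100 μM) for 20 h at 37° C. NF-κB read as SEAP via QUANTI-Blue at OD620; IRF read as Lucia luminescence via QUANTI-Luc after 5 min. 100% activation set by 100 μM cGAMP, baseline by DMSO.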

[2] = system: NF-κB pathway, THP1-Dual™ cells; test: STING reporter assay in THP1-Dual cells, NF-κB pathway (SEAP, QUANTI-Blue); format: cell-based, human; conditions: read-out: NFkB (EC50 μM)
Summary of the method: as §1

[3] = Homo sapiens, THP1-Dual, 20 h, THP1-Dual cells, 10% human plasma, 20 hours, Lucia luciferase, 100% activation = 100 μM cGAMP
[4] = Homo sapiens, THP1-Dual, 20 h, THP1-Dual cells, 10% human plasma, 20 hours, SEAP, 100% activation = 100 μM cGAMP
[5] = THP1-Dual cells, 10% human plasma, 20 hours, Lucia luciferase, 100% activation = 100 μM cGAMP
[6] = THP1-Dual cells, 10% human plasma, 20 hours, SEAP, 100% activation = 100 μM cGAMP

Row | SMILES | EC50 [1, 3] [µM] | EC50 [2, 4] [µM] | further results
1 | COC(=O)c1cccc2cc(CNC(=O)c3cncnc3)oc12 [EXAMPLE 15, Methyl 2-((pyrimidine-5-carboxamido)methyl)benzofuran-7-carboxylate] | 44 | 39 | –
2 | CC(OC(=O)c1cc(F)c(F)c2cc(CNC(=O)c3cnn4cccnc34)oc12)C(F)(F)F (centres unmarked) [EXAMPLE 227, 1,1,1-Trifluoropropan-2-yl 4,5-difluoro-2-((pyrazolo[1,5-a]pyrimidine-3-carboxamido)methyl)benzofuran-7-carboxylate] | 3.8 | 4.2 | –
3 | O=C(OCC(F)(F)C(F)(F)C(F)(F)CO)c1cc(Cl)cc2cc(CNC(=O)c3cnn4cccnc34)oc12 [EXAMPLE 253, 2,2,3,3,4,4-Hexafluoro-5-hydroxypentyl 5-chloro-2-((pyrazolo[1,5-a]pyrimidine-3-carboxamido)methyl)benzofuran-7-carboxylate] | – | – | EC50 ([1]; Homo sapiens, THP1-Dual, 20 h): 0.96 µM; EC50 ([2]; Homo sapiens, THP1-Dual, 20 h): 0.93 µM
4 | COC(=O)c1cc(C)cc2cc(Cn3cnc4ccncc4c3=O)oc12 [Example 86, Methyl 5-methyl-2-((4-oxopyrido[4,3-d]pyrimidin-3(4H)-yl)methyl)benzofuran-7-carboxylate] | 1.7 | 1.8 | –
5 | COC(=O)c1cccc2cc(Cn3cccc(C#N)c3=O)oc12 [EXAMPLE 18, Methyl 2-((3-cyano-2-oxopyridin-1(2H)-yl)methyl)benzofuran-7-carboxylate] | 79 | 97 | –
6 | CC(OC(=O)c1cc(F)cc2cc(CNC(=O)c3cnn4cccnc34)oc12)C(F)(F)F (single isomer, unassigned) [EXAMPLE 317, 1,1,1-Trifluoropropan-2-yl 5-fluoro-2-((pyrazolo[1,5-a]pyrimidine-3-carboxamido)methyl)benzofuran-7-carboxylate] | – | – | EC50 [1, 5]: 1.4 µM; EC50 [2, 6]: 1.3 µM
7 | O=C(OC1CC(F)(F)C1)c1cc(F)cc2cc(CNC(=O)c3cnn4cccnc34)oc12 [EXAMPLE 236, 3,3-Difluorocyclobutyl 5-fluoro-2-((pyrazolo[1,5-a]pyrimidine-3-carboxamido)methyl)benzofuran-7-carboxylate] | 1.3 | 1.8 | –
8 | C[C@H](OC(=O)c1cc(F)cc2c(Cl)c(CNC(=O)c3cnn4cccnc34)oc12)C(F)(F)F [EXAMPLE 289, (S)-1,1,1-Trifluoropropan-2-yl 3-chloro-5-fluoro-2-((pyrazolo[1,5-a]pyrimidine-3-carboxamido)methyl)benzofuran-7-carboxylate] | 0.62 | 0.71 | –
9 | COC(=O)c1cc(F)cc2cc(Cn3ccc4ncncc4c3=O)oc12 [EXAMPLE 37, Methyl 5-fluoro-2-((5-oxopyrido[4,3-d]pyrimidin-6(5H)-yl)methyl)benzofuran-7-carboxylate] | 11 | 12 | –
10 | COC(=O)c1cc(Cl)cc2c(C)c(CNC(=O)c3cnn4cccnc34)oc12 [EXAMPLE 115, Methyl 5-chloro-3-methyl-2-((pyrazolo[1,5-a]pyrimidine-3-carboxamido)methyl)benzofuran-7-carboxylate] | 0.6 | 0.82 | –
11 | CCC(C)OC(=O)c1cccc2cc(CN3CCc4ccncc4C3=O)oc12 (racemic) [EXAMPLE 208, Sec-butyl 2-((1-oxo-3,4-dihydro-2,7-naphthyridin-2(1H)-yl)methyl)benzofuran-7-carboxylate] | 33 | 31 | –
12 | Cc1cc(C(=O)NO)c2oc(CNC(=O)c3cnn4cccnc34)c(Cl)c2c1 [EXAMPLE 407, N-((3-chloro-7-(hydroxycarbamoyl)-5-methylbenzofuran-2-yl)methyl)pyrazolo[1,5-a]pyrimidine-3-carboxamide] | 30 | 37 | –
13 | COC(=O)Cc1cc(C)cc2cc(CNC(=O)c3cnn4cccnc34)oc12 [Example 98, Methyl 2-(5-methyl-2-((pyrazolo[1,5-a]pyrimidine-3-carboxamido)methyl)benzofuran-7-yl)acetate] | 11 | 10 | –
14 | O=C(NCc1cc2cccc(C(=O)OCC(F)(F)F)c2o1)c1cnccn1 [EXAMPLE 216, 2,2,2-Trifluoroethyl 2-((pyrazine-2-carboxamido)methyl)benzofuran-7-carboxylate] | 12 | 17 | –
15 | COC(OC(=O)c1cc(C#N)cc2cc(CNC(=O)c3cnn4cccnc34)oc12)C(F)(F)F (single isomer, unassigned) [EXAMPLE 348, 2,2,2-Trifluoro-1-methoxyethyl 5-cyano-2-((pyrazolo[1,5-a]pyrimidine-3-carboxamido)methyl)benzofuran-7-carboxylate] | – | – | EC50 [1, 5]: 5.6 µM; EC50 [2, 6]: 3.9 µM
16 | COC(=O)c1cccc2cc(CNC(=O)c3cnn4cccnc34)oc12 [EXAMPLE 9, Methyl 2-((pyrazolo[1,5-a]pyrimidine-3-carboxamido)methyl) benzofuran-7-carboxylate] | – | – | EC50 [1, 5]: 2.1 µM; EC50 [2, 6]: 1.8 µM

Row | SMILES | EC50 [1, 3] [µM] | EC50 [2, 4] [µM] | further results
17 | C[C@@H](OC(=O)c1c(F)ccc2cc(CNC(=O)c3cnn4cccnc34)oc12)C(F)(F)F [EXAMPLE 285, (R)-1,1,1-Trifluoropropan-2-yl 6-fluoro-2-((pyrazolo[1,5-a]pyrimidine-3-carboxamido)methyl)benzofuran-7-carboxylate] | 1.4 | 1.9 | –
18 | COC(OC(=O)c1cc(Cl)cc2cc(CNC(=O)c3cnn4cccnc34)oc12)C(F)(F)F (single isomer, unassigned) [EXAMPLE 332, 2,2,2-Trifluoro-1-methoxyethyl 5-chloro-2-((pyrazolo[1,5-a]pyrimidine-3-carboxamido)methyl)benzofuran-7-carboxylate] | – | – | EC50 [1, 5]: 1.1 µM; EC50 [2, 6]: 1.1 µM
19 | CSC(=O)c1cc(F)cc2cc(CN3CCc4ccncc4C3=O)oc12 [EXAMPLE 386, S-Methyl 5-fluoro-2-((1-oxo-3,4-dihydro-2,7-naphthyridin-2(1H)-yl)methyl)benzofuran-7-carbothioate] | 3.4 | 3.7 | –
20 | O=C(OCC(F)(F)F)c1cc(F)cc2cc(CNC(=O)c3cnc4cccnn34)oc12 [EXAMPLE 230, 2,2,2-Trifluoroethyl 5-fluoro-2-((imidazo[1,2-b]pyridazine-3-carboxamido)methyl)benzofuran-7-carboxylate] | 0.93 | 0.95 | –
21 | CSC(=O)c1cc(F)cc2cc(CNC(=O)c3cnn4cccnc34)oc12 [EXAMPLE 382, S-Methyl 5-fluoro-2-((pyrazolo[1,5-a]pyrimidine-3-carboxamido)methyl)benzofuran-7-carbothioate] | 1.3 | 1.1 | –
22 | CC(NC(=O)c1cnn2cccnc12)c1cc2cc(F)cc(C(=O)O[C@@H](C)C(F)(F)F)c2o1 (stereo partly drawn) [EXAMPLE 305, (S)-1,1,1-Trifluoropropan-2-yl 5-fluoro-2-(1-(pyrazolo[1,5-a]pyrimidine-3-carboxamido)ethyl)benzofuran-7-carboxylate] | 5 | 3.9 | –
23 | C[Si](C)(C)CCSC(=O)c1cc(Cl)cc2cc(CNC(=O)c3cnn4cccnc34)oc12 [EXAMPLE 394] | – | – | EC50 ([1]; Homo sapiens, THP1-Dual, 20 h): > 100 µM; EC50 ([2]; Homo sapiens, THP1-Dual, 20 h): 11 µM
24 | Cc1ccc(C(=O)OC(C)C(F)(F)F)c2oc(CNC(=O)c3cnn4cccnc34)cc12 (centres unmarked) [EXAMPLE 225, 1,1,1-Trifluoropropan-2-yl 4-methyl-2-((pyrazolo[1,5-a]pyrimidine-3-carboxamido)methyl)benzofuran-7-carboxylate] | 7.5 | 7.5 | –
25 | COC(=O)c1c(O)ccc2cc(CNC(=O)c3cnn4cccnc34)oc12 [EXAMPLE 109, Methyl 6-hydroxy-2-((pyrazolo[1,5-a]pyrimidine-3-carboxamido)methyl)benzofuran-7-carboxylate] | 0.9 | 1.1 | –
26 | COC(=O)c1cc(Cl)cc2cc(CNC(=O)c3cncc(C)n3)oc12 [Example 59, Methyl 5-chloro-2-((6-methylpyrazine-2-carboxamido)methyl) benzofuran-7-carboxylate] | – | – | EC50 [1, 5]: 2.4 µM; EC50 [2, 6]: 2.6 µM
27 | O=C(OCCCCO)c1cc(Cl)cc2cc(CNC(=O)c3cnn4cccnc34)oc12 [EXAMPLE 250, 4-Hydroxybutyl 5-chloro-2-((pyrazolo[1,5-a]pyrimidine-3-carboxamido)methyl)benzofuran-7-carboxylate] | 1.2 | 0.62 | –
28 | COC(=O)c1cc(Cl)cc2c(Cl)c([C@H](C)NC(=O)c3cnn4cccnc34)oc12 [EXAMPLE 114, Methyl (S)-3,5-dichloro-2-(1-(pyrazolo[1,5-a]pyrimidine-3-carboxamido)ethyl)benzofuran-7-carboxylate] | 0.97 | 0.89 | –
29 | O=C(OCC(F)(F)F)c1cc(Br)cc2cc(CNC(=O)c3cnn4cccnc34)oc12 [EXAMPLE 269, 2,2,2-Trifluoroethyl 5-bromo-2-((pyrazolo[1,5-a]pyrimidine-3-carboxamido)methyl)benzofuran-7-carboxylate] | 1.1 | 1.1 | –
30 | O=C(O)c1cc(Cl)cc2c(Cl)c(CNC(=O)c3cnn4cccnc34)oc12 [EXAMPLE 174, 3,5-Dichloro-2-((pyrazolo[1,5-a]pyrimidine-3-carboxamido)methyl)benzofuran-7-carboxylic acid] | 83 | 91 | –
31 | Cc1cc(C(=O)O)c2oc(CNC(=O)c3cncc4cccnc34)c(Cl)c2c1 [EXAMPLE 178, 2-((1,6-naphthyridine-8-carboxamido)methyl)-3-chloro-5-methylbenzofuran-7-carboxylic acid] | 42 | 50 | –
